{"source": "patent US8445511B2", "about": "“Quinoline or quinoxaline derivatives for treating neurodegenerative diseases” (Centre National de la Recherche Scientifique (SNRS), priority 2008, dated 2013)", "test_system": "fetal dopaminergic neurons in culture", "experiment": "Neuroprotection and differentiation of dopaminergic (TH+) neurons in primary culture of rat embryo mesencephalon (spontaneous degeneration model)", "type": "cell-based", "design": "key to Diff (qualitative assessment of neuron differentiation): + indicates that the neurons have a morphology similar to that of the control; ++ and +++ indicate the presence of neurons whose extensions are longer and more numerous than the control neurons; ++ and +++ indicate the presence of neurons whose extensions are longer and more numerous than the control neurons; − indicates that the neurons have neurites that are shorter and less numerous than the control neurons", "method": "Dissection consists in extracting the embryos from the uterus of a rat at fifteen days of gestation. The brain of each embryo is then dissected under a binocular magnifier in order to extract the ventral mesencephalon.\nThe mesencephalons are gathered in a flask containing 2 ml of L15 medium and then mechanically dissociated (30 times), and then 5 ml of L15 medium are added. The suspension is left to rest for 8 minutes. 5 ml of the supernatant are recovered in a new flask and the cells are dissociated again (30 times). 5 ml of L15 are again added and the suspension is left to rest for 8 minutes. 5 ml of supernatant are added to the preceding. The cells thus extracted are then centrifuged for 5 minutes at 1,000 rpm. The cell pellet is taken up in Neurobasal medium supplemented with 1% B27, 1% glutamine and 1% penicillin/streptomycin mixture. The cells are then inoculated at the appropriate dilution (0.6 embryo per well on a 24-well plate and 0.4 per well on a 48-well plate). The cultures are incubated at 37° C. in a humid atmosphere enriched with 5% CO2 in a 24- or 48-well plate.\nAfter 24 hours, two-thirds of the medium of each well is replaced by new medium enriched with the compound of the invention to test at the appropriate dilution. The medium is replaced in the same way after 4 days of culture.\nAt 8 days of culture, the cells are fixed by a 4% formaldehyde solution and then washed three times with PBS. The cells then undergo several immunohistochemistry procedures: • anti-tyrosine hydroxylase (TH) visualized by a secondary antibody coupled to a fluorochrome that emits in the red spectrum (Cy3). • anti-MAP2 (MAP=microtubule-associated protein) (neuron marker) visualized by a secondary antibody coupled to a fluorochrome that emits in the green spectrum (alexa488). • DAPI (4′,6-diamidino-2-phenylindole), a nuclear marker that emits in the blue spectrum.\nNeuroprotection is evaluated by counting TH positive neurons directly under the microscope or MAP2 positive on images, at 15 images per well, expressed as a percentage of the untreated control. The experiments include three wells per condition. Three independent experiments are carried out under these conditions. Total neurite length per cell calculated by the Neurite Outgrowth software by Explora Nova on 20 neurons photographed independently per well gives an indication of the state of maturation of the dopaminergic neurons.\nThe compounds of the invention were tested on a model of spontaneous degeneration of dopaminergic neurons in culture.\nThis model consists of culturing cells of the ventral mesencephalon of rat embryo. This part of the brain in culture contains dopaminergic neurons and other primarily GABAergic neurons. These cultures are also composed of glial cells, namely astrocytes, oligodendrocytes and microglia. This is a model of spontaneous degeneration of dopaminergic neurons which mimics certain aspects of Parkinson's disease.\nThe neuroprotective effect of the compounds of the invention was evaluated by counting dopaminergic neurons (TH^+) marked by tyrosine hydroxylase (TH) immunohistochemistry after 8 days of culture. Thus the compounds were evaluated at 1 nM, 10 nM, 100 nM and 1 μM and were compared with the activity of dibutyryl cyclic AMP (db-cAMP) used as the reference product.\nIn order to evaluate more quantitatively the activity of the compounds of the invention, neurite growth per cell was measured using the Neurite Outgrowth software developed by Explora Nova. A minimum of 60 neurons per condition were photographed and studied, and the results were then averaged and normalized by the number of neurons considered.", "note": "“Also recorded” adds a separate entry of the source."}
{"smiles": "C#CC(O)CCCCCCCCCCCCC#Cc1ccc2ccccc2n1", "note": "(centres unmarked) [Compound N3, 17-(quinolin-2-yl)heptadec-1,16-diyn-3-ol]", "values": [{"measurement": "dose-response of effect on survival of dopaminergic neurons", "setting": "1 nM, 10 nM, 100 nM and 1 μM, FIG. 2", "result": "dose-dependent"}, {"measurement": "Diff (qualitative assessment of neuron differentiation)", "setting": "100 nM, dopaminergic neurons in culture", "result": "+++"}, {"measurement": "viability at 0.1 µM", "setting": "Rattus norvegicus, Neuron, 192 h, 100 nM, survival of TH+ dopaminergic neurons after 8 days of culture, read-out: % Neurons relative to the control ±SEM", "result": "154 ± 4.1", "unit": "%"}, {"measurement": "neuroprotective activity (percentage of survival of dopaminergic neurons), in words, versus reference product db-cAMP", "setting": "dopaminergic neurons, 8 days of culture", "result": "equal to or greater than that of the reference product; also recorded: the most active compound"}, {"measurement": "concentration of maximum effect on survival of dopaminergic neurons", "setting": "dose-response curve, FIG. 2", "result": 100, "unit": "nM"}]}
